pKi: −log10 of the molar value. Counter-ions that a name gives are not always drawn.
Assays:
[1] = test system: PAF induced vascular permeability change in guinea pig skin
Text: Platelet Activating Factor (PAF) given intradermally, increases capillary permeability, and plasma proteins (e.g albumin) leak from the vascular space into the interstitial fluids of the skin. If the albumin has been previously stained with Evans' blue dye, the lesion area can be visualized as a blue spot in the .skin. A specific PAF antagonist inhibits the development of increased capillary permeability caused by PAF and reduces the leakage of proteins into the skin. Test compounds were evaluated for non-specific effects by monitoring their ability to inhibit or reduce a histamine induced increase in capillary permeability.
Test Solutions were prepared as follows: Evans' Blue Dye (Sigma E2129) was dissolved in saline to yield a 0.1% w/v solution. A 2 mg/ml stock chloroform solution of PAF (1-phosphotidyl, acetyl-O-alkyl; Sigma P9525) was diluted in saline to give final concentrations of 500 and 250 ng/ml. Saline dilutions were made fresh for each test. Histamine diphosphate solutions (Sigma H7375) were prepared by dissolving 10 mg in 100 ml of saline and diluting to 20 μg/ml with saline. Test compounds were dissolved in ethanol at 10 mg/ml and stored at -70° C. Injection mixtures were made by placing 10 μl of test compound solution into 1.0 ml of either the PAF solutions or the histamine solution.
The animals used were Hartley strain guinea pigs weighing 250-350 g, maintained with food and water ad libitum. The animals were shaved on their back and hind feet one day before use.
Each guinea pig was given an intravenous injection of 2 ml of Evans' blue dye solution into a foot vein. Immediately after, a series of six intradermal injections of 0.1 ml each were given, three on each side of the animal. They were: PAF 50 ng (0.1 ml of a 500 ng/ml solution); PAF 25 ng; and histamine diphosphate 2 μg. The left side injections contain 10 μg of test compound while the right side contain an equivalent amount of the ethanol vehicle to serve as a control.
Thirty minutes later the animals were killed by cervical dislocation and the skin reflected from the back. The lesion areas were approximated as the product of the largest diameter and normal diameter both in mm.

PAF receptor [2] = target: T1, PAF receptor (Oryctolagus cuniculus, UniProt G1TEI7); assay: Inhibition of PAF induced platelet aggregation in rabbit platelet rich plasma (PRP); type: cell-based, rabbit (male New Zealand White); parameters: immediately centrifuged at 800 rpm for 10 minutes at room temperature to recover the platelet rich plasma (PRP); endogenous in cells; host or cells: rabbit platelets in platelet rich plasma (male New Zealand White rabbits); details: for IC50: IC50 (M) PRP, inhibition of PAF-induced platelet aggregation, rabbit platelet rich plasma
Protocol: (§1) Platelet activating factor (PAF) compounds were evaluated as PAF receptor antagonists in vitro by measuring inhibition of PAF induced platelet aggregation. Platelet aggregation was measured by a modification of the method of A. Wissner, et. al., J. Med. Chem., 27, 1174, 1984.
(§2) Approximately 120-240 ml of blood were collected by cardiac puncture from unanesthetized male New Zealand White rabbits (Whaley's Summit View Farms, Belvedere, N.J.) with the use of 3.2% sodium citrate anticoagulant (1 part of citrate/10 parts of blood). All syringes and pipets were plastic. The blood was gently mixed and immediately centrifuged at 800 rpm for 10 minutes at room temperature to recover the platelet rich plasma (PRP). Platelet poor plasma (PPP) was prepared by centrifuging PRP at 2800 rpm for 10 minutes at room temperature.
(§3) Dilutions (1:3000) Of PRP in Isoton diluent were made and platelet counts were determined on a Coulter Thrombocounter which was standardized with platelet reference standards (Interscience Platelet Control, Portland, Oreg.). PRP platelet counts were adjusted to 500,000 platelets/μl by the addition of PPP.
(§4) L-PAF was obtained from Calbiochem. A stock solution of 1-2 E-3M was prepared in 10% ethanol in water and serial working dilutions were made using phosphate buffered saline (PBS). 1-2 E-3M stock solutions of test compounds were prepared in 100% methanol and serially diluted in PBS. All solutions were made up in plastic tubes, stored on ice and protected from heat and light. Solutions were prepared fresh or frozen at -20° C. and used within 48 hours.
(§5) Incubation mixtures consisted of 400 μl PRP, 50 μl of PBS diluent or test compound and 50 μl of PAF agonist. More specifically, 400 μl of PRP was stabilized in a cuvette for 1-2 minutes at 37° C. in the aggregometer to achieve a stable baseline, then 50 μl of PBS or test compound, was added and incubated for 5 minutes before addition of the challenge concentration of PAF ([…], as determined from the dose response curve for PAF for that experiment). Aggregation was monitored for 5 minutes. Samples containing test compound or diluent were run simultaneously for comparison. Test compounds were initially evaluated at a screening concentration of 1E-5M. Those producing ≥ 50% inhibition of the magnitude of aggregation were then reevaluated in a dose response fashion (final concentrations 1E-7M to 5E-5M) and IC50 values were determined. Ki values were also calculated in some cases from [formula] where Ki =inhibitory constant
(§6) IC50 =molar concentration of test compound which gives 50% inhibition
(§7) [PAF]=molar concentration of PAF used as challenges
(§8) EC50 =molar concentration of PAF which gives 50% of maximal aggregation.
(§9) The recording equipment consisted of single or dual channel Chronolog aggregometers connected to dual channel 10 MV full scale deflection Omniscribe chart recorders (Houston Instruments). […] The bead suspension was used to set the 0% light transmission mark and clear water was used to set the 100% light transmission mark. These limits defined a full scale deflection. The aggregation traces were analyzed by a digitizing method (C. Kohler and B. Zoltan, J. Pharm. Methods, 12, 113, 1984) with x, y coordinate data stored in a computer file. A suitable program computed parameters of interest such as the magnitude of aggregation.

[3] = test system: PAF induced vascular permeability change in mouse skin; assay: Inhibition of PAF induced vascular permeability change in mouse skin; type: in vivo, mouse (Hilltop ICR); details: ip, 0.5 h, test compound i.p., PAF i.d., read-out: Inhibition of Vascular Permeability Lesion (ED50 mg/kg)
Protocol: Inhibition of PAF Induced Vascular Permeability Change in Mouse Skin
The rationale for this test is similar to the coinjection test in guinea pigs; however, the test compound was given intraperitoneally rather than coinjected.
Test solutions were prepared as follows: An 80 μg portion of PAF was dissolved in 40 ml of saline to yield a concentration of 2000 ng/ml. A 10 mg portion of histamine diphosphate was dissolved in 100 ml of saline to yield a concentration 100 μg/ml. Test compounds were dissolved in saline and given intraperitoneally (20 mg/kg) 1/2 hour before intradermal challenge with PAF or histamine.
The animals used were Hilltop ICR mice, shaved on their flanks one day before use. The mice were randomly assigned to treated and control groups and were given test compound or saline 1/2 hour before challenge. Each mouse was injected via a tail vein with 0.25 ml of 0.05% Evans' blue dye immediately before the PAF or histamine intradermal injections were made (0.05 ml each), one per side.
Thirty minutes later the animals were killed and the lesions areas measured as described above. Lesion areas in treated animals were expressed as a percent of the control lesions and an ED50 (mg/kg) was calculated from an arcsine area vs. log dose transform.

PAF receptor [4] = target: T1, PAF receptor; assay: Inhibition of PAF induced platelet aggregation in washed rabbit platelets; type: cell-based; parameters: In some experiments, washed platelets were used instead of PRP; endogenous in cells; host or cells: washed rabbit platelets
Protocol: as §1, §2, §3, §4, §5, §6, §7, §8, §9
In some experiments, washed platelets were used instead of PRP. Washed platelet suspensions were prepared as follows. PRP was centrifuged at 2800 rpm for 10 minutes to obtain PPP and a platelet pellet. The pellet was gently suspended and washed in calcium free, albumin free Tyrode's buffer, pH 6.3. The suspension was recentrifuged and the washed pellet was resuspended in normal Tyrodes', buffer (with calcium, but albumin free), pH 7.4. Platelet counts were adjusted to 500,00 platelets/μl.

PAF induced lethality = PAF induced lethality in the mouse; type: in vivo, mouse (ICR); details: ip, 1 h, mice, test compound i.p. 1/2 hour before PAF i.v., dose that protects 1/2 the animals, read-out: PAF induced Lethality PD50 (mg/kg I.P., 1/2 hour)
Protocol: PAF Induced Lethality in the Mouse
Test compounds were evaluated for their ability to prevent death induced by an intravenous injection of a lethal dose of PAF.
ICR mice were given test compounds intraperitoneally as described under Inhibition of PAF Induced Vascular Permeability Change in Mouse Skin, 1/2 hour before an intravenous dose of 100 μg/kg PAF in saline. One hour later the number of dead mice were recorded. Protection was expressed as percent survivors in treated group/percent survivors in control group.

T1 sequence (G1TEI7 1-342): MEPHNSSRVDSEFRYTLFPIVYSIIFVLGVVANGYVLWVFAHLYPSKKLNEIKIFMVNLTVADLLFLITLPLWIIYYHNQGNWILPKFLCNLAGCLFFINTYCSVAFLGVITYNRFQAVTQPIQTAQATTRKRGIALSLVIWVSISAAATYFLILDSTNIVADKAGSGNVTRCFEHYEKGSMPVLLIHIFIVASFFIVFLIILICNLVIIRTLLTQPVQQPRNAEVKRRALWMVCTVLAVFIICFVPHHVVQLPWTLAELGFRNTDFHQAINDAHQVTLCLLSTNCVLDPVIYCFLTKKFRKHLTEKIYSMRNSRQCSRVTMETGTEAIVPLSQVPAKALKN

CCCCCCCCCCCCCCCCOCC(COP(=O)([O-])Oc1cccc(C[n+]2csc(C)c2)c1)OC (stereo not drawn) [3-[[3-[[[3-(Hexadecyloxy)-2-methoxypropoxy]hydroxyphosphinyl]oxy]phenyl]methyl]-5-methylthiazolium, hydroxide, inner salt]
Inhibition of Vascular Permeability Lesion (% of Control) [1]: 24 % of Control
pKi (PAF receptor [2]): 6.68
IC50 (PAF receptor [2]; PAF challenge 1E-6M): 1.2e-05 M
IC50 (PAF receptor [2]; PAF challenge 1E-7M): 7.1e-07 M
IC50 (PAF receptor [2]; PAF challenge 5E-8M): 8.2e-07 M
ED50 [3]: 4.8 mg/kg
pKi (PAF receptor [4]; calculated from IC50, [PAF] and EC50): 7.82
IC50 (PAF receptor [4]; challenge concentration of PAF 5E9M [sic]): 32 nM
ED50 (PAF induced lethality): < 1.25 mg/kg

From US5411983A, “Certain hyrdoxy-phosphinyl-oxy-phenylmethyl-imidazolium hydroxide inner salts as PAF antagonists” (American Cyanamid Company, priority 1993, dated 1995)
